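All cell lines were grown in 96-well plates and treated with compound for 48 hours. Here, GI50 denotes the concentration required for 50% inhibition of growth.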 The source made the active and inactive calls. Rule as the data show it: active = GI50 up to about 1.1 µM and inactive = higher.
How the values were obtained:
Experiment in all cases: growth of human tumour cells (NCI), 48 h
NCI-H226 = system: NCI-H226
SK-OV-3 = system: SK-OV-3
SK-MEL-5 = system: SK-MEL-5
LOX IMVI = system: LOX IMVI
NCI-H23 = system: NCI-H23
OVCAR-3 = system: OVCAR-3
U-251 = system: U-251
DMS-114 = system: DMS-114
HCT-116 = system: HCT-116
RXF 393 = system: RXF 393
SR = system: SR
786-0 = system: 786-0
SNB-19 = system: SNB-19
UO-31 = system: UO-31
SF-268 = system: SF-268
MOLT-4 = system: MOLT-4
M19-MEL = system: M19-MEL
IGROV-1 = system: IGROV-1
SF-295 = system: SF-295
HT-29 = system: HT-29
CAKI-1 = system: CAKI-1
OVCAR-8 = system: OVCAR-8
A549 = system: A549
UACC-257 = system: UACC-257
DLD-1 = system: DLD-1
Malme-3M = system: Malme-3M
LXFL 529 = system: LXFL 529
RPMI-8226 = system: RPMI-8226
HCT-15 = system: HCT-15
HCC 2998 = system: HCC 2998
DMS-273 = system: DMS-273
OVCAR-4 = system: OVCAR-4
HOP-92 = system: HOP-92
M14 = system: M14
ACHN = system: ACHN
K562 = system: K562
OVCAR-5 = system: OVCAR-5
HL-60 = system: HL-60
UACC-62 = system: UACC-62
NCI-H522 = system: NCI-H522
HOP-62 = system: HOP-62
A498 = system: A498
SNB-78 = system: SNB-78
EKVX = system: EKVX
KM-20L2 = system: KM-20L2
XF498 = system: XF498
SF-539 = system: SF-539
NCI-H460 = system: NCI-H460
KM12 = system: KM12
RXF 631 = system: RXF 631
SK-MEL-2 = system: SK-MEL-2
HOP-18 = system: HOP-18
SW-620 = system: SW-620
CCRF-CEM = system: CCRF-CEM
SNB-75 = system: SNB-75
COLO 205 = system: COLO 205
SN12C = system: SN12C
TK-10 = system: TK-10
SK-MEL-28 = system: SK-MEL-28

Measured: GI50

O=C(Cc1ccccc1)C(c1ccccc1)S(=O)(=O)c1ccccc1 (centres undefined)
83.6 µM: HCT-15
inactive: NCI-H226 > 100 µM | SK-OV-3 > 100 µM | SK-MEL-5 > 100 µM | LOX IMVI > 100 µM | NCI-H23 77.4 µM | OVCAR-3 > 100 µM | U-251 > 100 µM | DMS-114 48.6 µM | HCT-116 59.3 µM | RXF 393 67 µM | SR 69.3 µM | 786-0 > 100 µM | SNB-19 > 100 µM | UO-31 41.2 µM | SF-268 > 100 µM | MOLT-4 > 100 µM | M19-MEL > 100 µM | IGROV-1 > 100 µM | SF-295 > 100 µM | HT-29 > 100 µM | CAKI-1 > 100 µM | OVCAR-8 > 100 µM | A549 59.4 µM | UACC-257 > 100 µM | DLD-1 > 100 µM | Malme-3M > 100 µM | LXFL 529 87.1 µM | RPMI-8226 > 100 µM | HCC 2998 > 100 µM | DMS-273 > 100 µM | OVCAR-4 73.3 µM | HOP-92 81.5 µM | M14 > 100 µM | ACHN > 100 µM | K562 93.3 µM | OVCAR-5 > 100 µM | HL-60 > 100 µM | UACC-62 75.2 µM | NCI-H522 88.7 µM | HOP-62 > 100 µM | A498 > 100 µM | SNB-78 97.7 µM | EKVX > 100 µM | KM-20L2 > 100 µM | XF498 > 100 µM | SF-539 > 100 µM | NCI-H460 > 100 µM | KM12 > 100 µM | RXF 631 > 100 µM | SK-MEL-2 > 100 µM | HOP-18 85.5 µM | SW-620 > 100 µM | CCRF-CEM > 100 µM | SNB-75 23 µM | COLO 205 > 100 µM | SN12C > 100 µM | TK-10 > 100 µM | SK-MEL-28 > 100 µM

From ChEMBL document CHEMBL1201862, “PubChem BioAssay data set” (2004)
